Data as given in US9113629B2, “4-amino-6-(4-substituted-phenyl)-picolinates and 6-amino-2-(4-substituted-phenyl)-pyrimidine-4-carboxylates and their use as herbicides” (DOW AGROSCIENCES LLC, priority 2013, dated 2015).

Tested on: Key Grass and Sedge Weeds as well as Grass Crops
Test: Post-emergent Test II herbicidal activity (Table 6)
Type: in vivo
Settings: post-emergence, 336 h, CYPES: yellow nutsedge (Cyperus esculentus), 70 g ai/ha, read-out: Visual Growth Reduction (%) 14 Days After Application, CYPES
Outline: (§1)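 Plants grown in Metro-Mix 360 (pH 6.0–6.8) in a greenhouse (~15 h photoperiod, 23–29 °C day) to first or second true leaf stage, then sprayed with compound in acetone/DMSO/aqueous crop-oil-surfactant carrier at 187 L/ha by track sprayer. Injury visually scored 0–100% versus untreated plants after 14 d.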

SMILES	pest or weed control at 70 g/ha [%]
COC(=O)c1nc(-c2ccc(OC(F)F)cc2)nc(N)c1OC [Compound 106, methyl 6-amino-2-(4-(difluoromethoxy)phenyl)-5-methoxypyrimidine-4-carboxylate]	0 to 29

Same assay, conditions: post-emergence, 336 h, CYPES: yellow nutsedge (Cyperus esculentus), 140 g ai/ha, read-out: Visual Growth Reduction (%) 14 Days After Application, CYPES

SMILES	pest or weed control at 140 g/ha [%]
COC(=O)c1nc(-c2ccc(OC(F)F)cc2)nc(N)c1OC [Compound 106, methyl 6-amino-2-(4-(difluoromethoxy)phenyl)-5-methoxypyrimidine-4-carboxylate]	0 to 29

Same assay, conditions: post-emergence, 336 h, DIGSA: crabgrass (Digitaria sanguinalis), 70 g ai/ha, read-out: Visual Growth Reduction (%) 14 Days After Application, DIGSA

SMILES	pest or weed control at 70 g/ha [%]
COC(=O)c1nc(-c2ccc(OC(F)F)cc2)nc(N)c1OC [Compound 106, methyl 6-amino-2-(4-(difluoromethoxy)phenyl)-5-methoxypyrimidine-4-carboxylate]	0 to 29

Same assay, conditions: post-emergence, 336 h, DIGSA: crabgrass (Digitaria sanguinalis), 140 g ai/ha, read-out: Visual Growth Reduction (%) 14 Days After Application, DIGSA

SMILES	pest or weed control at 140 g/ha [%]
COC(=O)c1nc(-c2ccc(OC(F)F)cc2)nc(N)c1OC [Compound 106, methyl 6-amino-2-(4-(difluoromethoxy)phenyl)-5-methoxypyrimidine-4-carboxylate]	0 to 29

Same assay, conditions: post-emergence, 336 h, ECHCG: barnyardgrass (Echinochloa crus-galli), 70 g ai/ha, read-out: Visual Growth Reduction (%) 14 Days After Application, ECHCG

SMILES	pest or weed control at 70 g/ha [%]
COC(=O)c1nc(-c2ccc(OC(F)F)cc2)nc(N)c1OC [Compound 106, methyl 6-amino-2-(4-(difluoromethoxy)phenyl)-5-methoxypyrimidine-4-carboxylate]	0 to 29

Same assay, conditions: post-emergence, 336 h, ECHCG: barnyardgrass (Echinochloa crus-galli), 140 g ai/ha, read-out: Visual Growth Reduction (%) 14 Days After Application, ECHCG

SMILES	pest or weed control at 140 g/ha [%]
COC(=O)c1nc(-c2ccc(OC(F)F)cc2)nc(N)c1OC [Compound 106, methyl 6-amino-2-(4-(difluoromethoxy)phenyl)-5-methoxypyrimidine-4-carboxylate]	0 to 29

Same assay, conditions: post-emergence, 336 h, ORYSA: rice (Oryza sativa), crop, 70 g ai/ha, read-out: Visual Growth Reduction (%) 14 Days After Application, ORYSA

SMILES	pest or weed control at 70 g/ha [%]
COC(=O)c1nc(-c2ccc(OC(F)F)cc2)nc(N)c1OC [Compound 106, methyl 6-amino-2-(4-(difluoromethoxy)phenyl)-5-methoxypyrimidine-4-carboxylate]	0 to 29

Same assay, conditions: post-emergence, 336 h, ORYSA: rice (Oryza sativa), crop, 140 g ai/ha, read-out: Visual Growth Reduction (%) 14 Days After Application, ORYSA

SMILES	pest or weed control at 140 g/ha [%]
COC(=O)c1nc(-c2ccc(OC(F)F)cc2)nc(N)c1OC [Compound 106, methyl 6-amino-2-(4-(difluoromethoxy)phenyl)-5-methoxypyrimidine-4-carboxylate]	0 to 29

Same assay, conditions: post-emergence, 336 h, SETFA: giant foxtail (Setaria faberi), 70 g ai/ha, read-out: Visual Growth Reduction (%) 14 Days After Application, SETFA

SMILES	pest or weed control at 70 g/ha [%]
COC(=O)c1nc(-c2ccc(OC(F)F)cc2)nc(N)c1OC [Compound 106, methyl 6-amino-2-(4-(difluoromethoxy)phenyl)-5-methoxypyrimidine-4-carboxylate]	0 to 29

Same assay, conditions: post-emergence, 336 h, SETFA: giant foxtail (Setaria faberi), 140 g ai/ha, read-out: Visual Growth Reduction (%) 14 Days After Application, SETFA

SMILES	pest or weed control at 140 g/ha [%]
COC(=O)c1nc(-c2ccc(OC(F)F)cc2)nc(N)c1OC [Compound 106, methyl 6-amino-2-(4-(difluoromethoxy)phenyl)-5-methoxypyrimidine-4-carboxylate]	0 to 29

Same assay, conditions: post-emergence, 336 h, SORVU: grain sorghum (Sorghum vulgare), 70 g ai/ha, read-out: Visual Growth Reduction (%) 14 Days After Application, SORVU

SMILES	pest or weed control at 70 g/ha [%]
COC(=O)c1nc(-c2ccc(OC(F)F)cc2)nc(N)c1OC [Compound 106, methyl 6-amino-2-(4-(difluoromethoxy)phenyl)-5-methoxypyrimidine-4-carboxylate]	0 to 29

Same assay, conditions: post-emergence, 336 h, SORVU: grain sorghum (Sorghum vulgare), 140 g ai/ha, read-out: Visual Growth Reduction (%) 14 Days After Application, SORVU

SMILES	pest or weed control at 140 g/ha [%]
COC(=O)c1nc(-c2ccc(OC(F)F)cc2)nc(N)c1OC [Compound 106, methyl 6-amino-2-(4-(difluoromethoxy)phenyl)-5-methoxypyrimidine-4-carboxylate]	0 to 29

Same assay, conditions: post-emergence, 336 h, TRZSS (wheat, Triticum aestivum), crop, 70 g ai/ha, read-out: Visual Growth Reduction (%) 14 Days After Application, TRZSS

SMILES	pest or weed control at 70 g/ha [%]
COC(=O)c1nc(-c2ccc(OC(F)F)cc2)nc(N)c1OC [Compound 106, methyl 6-amino-2-(4-(difluoromethoxy)phenyl)-5-methoxypyrimidine-4-carboxylate]	0 to 29

Same assay, conditions: post-emergence, 336 h, TRZSS (wheat, Triticum aestivum), crop, 140 g ai/ha, read-out: Visual Growth Reduction (%) 14 Days After Application, TRZSS

SMILES	pest or weed control at 140 g/ha [%]
COC(=O)c1nc(-c2ccc(OC(F)F)cc2)nc(N)c1OC [Compound 106, methyl 6-amino-2-(4-(difluoromethoxy)phenyl)-5-methoxypyrimidine-4-carboxylate]	0 to 29

Same assay, conditions: post-emergence, 336 h, ZEAMX: maize, corn (Zea mays), crop, 70 g ai/ha, read-out: Visual Growth Reduction (%) 14 Days After Application, ZEAMX

SMILES	pest or weed control at 70 g/ha [%]
COC(=O)c1nc(-c2ccc(OC(F)F)cc2)nc(N)c1OC [Compound 106, methyl 6-amino-2-(4-(difluoromethoxy)phenyl)-5-methoxypyrimidine-4-carboxylate]	0 to 29

Same assay, conditions: post-emergence, 336 h, ZEAMX: maize, corn (Zea mays), crop, 140 g ai/ha, read-out: Visual Growth Reduction (%) 14 Days After Application, ZEAMX

SMILES	pest or weed control at 140 g/ha [%]
COC(=O)c1nc(-c2ccc(OC(F)F)cc2)nc(N)c1OC [Compound 106, methyl 6-amino-2-(4-(difluoromethoxy)phenyl)-5-methoxypyrimidine-4-carboxylate]	0 to 29

Tested on: not given
Test: not given
Settings: not given

melting point [°C]	SMILES
183 to 184	COC(=O)c1nc(-c2ccc(OC(F)F)cc2)nc(N)c1OC [Compound 106, methyl 6-amino-2-(4-(difluoromethoxy)phenyl)-5-methoxypyrimidine-4-carboxylate]

Tested on: Key Broadleaf Weed and Crop Species
Test: Post-emergent Test II herbicidal activity (Table 5)
Type: in vivo
Settings: post-emergence, 336 h; ABUTH: velvetleaf (Abutilon theophrasti); application rate 70 g ai/ha; 14 days after application; read-out: Visual Growth Reduction (%) 14 Days After Application, ABUTH
Outline: as §1

SMILES	pest or weed control at 70 g/ha [%]
COC(=O)c1nc(-c2ccc(OC(F)F)cc2)nc(N)c1OC [Compound 106, methyl 6-amino-2-(4-(difluoromethoxy)phenyl)-5-methoxypyrimidine-4-carboxylate]	0 to 29

Same assay, conditions: post-emergence, 336 h; ABUTH: velvetleaf (Abutilon theophrasti); application rate 140 g ai/ha; 14 days after application; read-out: Visual Growth Reduction (%) 14 Days After Application, ABUTH

SMILES	pest or weed control at 140 g/ha [%]
COC(=O)c1nc(-c2ccc(OC(F)F)cc2)nc(N)c1OC [Compound 106, methyl 6-amino-2-(4-(difluoromethoxy)phenyl)-5-methoxypyrimidine-4-carboxylate]	0 to 29

Same assay, conditions: post-emergence, 336 h; AMARE: redroot pigweed (Amaranthus retroflexus); application rate 70 g ai/ha; 14 days after application; read-out: Visual Growth Reduction (%) 14 Days After Application, AMARE

SMILES	pest or weed control at 70 g/ha [%]
COC(=O)c1nc(-c2ccc(OC(F)F)cc2)nc(N)c1OC [Compound 106, methyl 6-amino-2-(4-(difluoromethoxy)phenyl)-5-methoxypyrimidine-4-carboxylate]	0 to 29

Same assay, conditions: post-emergence, 336 h; AMARE: redroot pigweed (Amaranthus retroflexus); application rate 140 g ai/ha; 14 days after application; read-out: Visual Growth Reduction (%) 14 Days After Application, AMARE

SMILES	pest or weed control at 140 g/ha [%]
COC(=O)c1nc(-c2ccc(OC(F)F)cc2)nc(N)c1OC [Compound 106, methyl 6-amino-2-(4-(difluoromethoxy)phenyl)-5-methoxypyrimidine-4-carboxylate]	0 to 29

Same assay, conditions: post-emergence, 336 h; BRSNN: oilseed-rape, canola (Brassica napus); application rate 70 g ai/ha; 14 days after application; read-out: Visual Growth Reduction (%) 14 Days After Application, BRSNN

SMILES	pest or weed control at 70 g/ha [%]
COC(=O)c1nc(-c2ccc(OC(F)F)cc2)nc(N)c1OC [Compound 106, methyl 6-amino-2-(4-(difluoromethoxy)phenyl)-5-methoxypyrimidine-4-carboxylate]	0 to 29

Same assay, conditions: post-emergence, 336 h; BRSNN: oilseed-rape, canola (Brassica napus); application rate 140 g ai/ha; 14 days after application; read-out: Visual Growth Reduction (%) 14 Days After Application, BRSNN

SMILES	pest or weed control at 140 g/ha [%]
COC(=O)c1nc(-c2ccc(OC(F)F)cc2)nc(N)c1OC [Compound 106, methyl 6-amino-2-(4-(difluoromethoxy)phenyl)-5-methoxypyrimidine-4-carboxylate]	0 to 29

Same assay, conditions: post-emergence, 336 h; CHEAL: lambsquarters (Chenopodium album); application rate 70 g ai/ha; 14 days after application; read-out: Visual Growth Reduction (%) 14 Days After Application, CHEAL

SMILES	pest or weed control at 70 g/ha [%]
COC(=O)c1nc(-c2ccc(OC(F)F)cc2)nc(N)c1OC [Compound 106, methyl 6-amino-2-(4-(difluoromethoxy)phenyl)-5-methoxypyrimidine-4-carboxylate]	0 to 29

Same assay, conditions: post-emergence, 336 h; CHEAL: lambsquarters (Chenopodium album); application rate 140 g ai/ha; 14 days after application; read-out: Visual Growth Reduction (%) 14 Days After Application, CHEAL

SMILES	pest or weed control at 140 g/ha [%]
COC(=O)c1nc(-c2ccc(OC(F)F)cc2)nc(N)c1OC [Compound 106, methyl 6-amino-2-(4-(difluoromethoxy)phenyl)-5-methoxypyrimidine-4-carboxylate]	0 to 29

Same assay, conditions: post-emergence, 336 h; EPHHL: wild poinsettia (Euphorbia heterophylla); application rate 70 g ai/ha; 14 days after application; read-out: Visual Growth Reduction (%) 14 Days After Application, EPHHL

SMILES	pest or weed control at 70 g/ha [%]
COC(=O)c1nc(-c2ccc(OC(F)F)cc2)nc(N)c1OC [Compound 106, methyl 6-amino-2-(4-(difluoromethoxy)phenyl)-5-methoxypyrimidine-4-carboxylate]	0 to 29

Same assay, conditions: post-emergence, 336 h; EPHHL: wild poinsettia (Euphorbia heterophylla); application rate 140 g ai/ha; 14 days after application; read-out: Visual Growth Reduction (%) 14 Days After Application, EPHHL

SMILES	pest or weed control at 140 g/ha [%]
COC(=O)c1nc(-c2ccc(OC(F)F)cc2)nc(N)c1OC [Compound 106, methyl 6-amino-2-(4-(difluoromethoxy)phenyl)-5-methoxypyrimidine-4-carboxylate]	0 to 29

Same assay, conditions: post-emergence, 336 h; HELAN: sunflower (Helianthus annuus); application rate 70 g ai/ha; 14 days after application; read-out: Visual Growth Reduction (%) 14 Days After Application, HELAN

SMILES	pest or weed control at 70 g/ha [%]
COC(=O)c1nc(-c2ccc(OC(F)F)cc2)nc(N)c1OC [Compound 106, methyl 6-amino-2-(4-(difluoromethoxy)phenyl)-5-methoxypyrimidine-4-carboxylate]	0 to 29

Same assay, conditions: post-emergence, 336 h; HELAN: sunflower (Helianthus annuus); application rate 140 g ai/ha; 14 days after application; read-out: Visual Growth Reduction (%) 14 Days After Application, HELAN

SMILES	pest or weed control at 140 g/ha [%]
COC(=O)c1nc(-c2ccc(OC(F)F)cc2)nc(N)c1OC [Compound 106, methyl 6-amino-2-(4-(difluoromethoxy)phenyl)-5-methoxypyrimidine-4-carboxylate]	0 to 29

Same assay, conditions: post-emergence, 336 h; VIOTR: wild pansy (Viola tricolor); application rate 70 g ai/ha; 14 days after application; read-out: Visual Growth Reduction (%) 14 Days After Application, VIOTR

SMILES	pest or weed control at 70 g/ha [%]
COC(=O)c1nc(-c2ccc(OC(F)F)cc2)nc(N)c1OC [Compound 106, methyl 6-amino-2-(4-(difluoromethoxy)phenyl)-5-methoxypyrimidine-4-carboxylate]	0 to 29

Same assay, conditions: post-emergence, 336 h; VIOTR: wild pansy (Viola tricolor); application rate 140 g ai/ha; 14 days after application; read-out: Visual Growth Reduction (%) 14 Days After Application, VIOTR

SMILES	pest or weed control at 140 g/ha [%]
COC(=O)c1nc(-c2ccc(OC(F)F)cc2)nc(N)c1OC [Compound 106, methyl 6-amino-2-(4-(difluoromethoxy)phenyl)-5-methoxypyrimidine-4-carboxylate]	0 to 29
